Values after ≈ are worked out from the molar mass of the structure shown. “Also recorded” adds a separate entry of the source.
How the values were obtained:
[1] = Solubility test in biological media and water at 37 °C (HPLC); assay type: physicochemical; conditions: for Solubility: calculated using free base
Procedure: (§1) HPLC analysis was performed using Agilent HPLC 1260 series instruments.
The solubility of salt was calculated using free base.

[2] = Solid state stability study, 7 days; assay type: physicochemical; conditions: for Crystal stability (in words): 60 °C/closed and 40 °C/75% RH; for Initial purity: stability baseline; for HPLC purity (area %) at 168 h: solid state; for Solid-state stability (in words): summary; for Purity: 10080 min
Procedure: as §1

[3] = Rat pharmacokinetics after single oral administration; assay type: in vivo, SD rats; conditions: for In vivo exposure level (in words): compared with free base crystal form I
[4] = Dog pharmacokinetics after single oral administration; assay type: in vivo, dogs; conditions: compared with free base crystal form I
[5] = Pharmacokinetic studies in animals, summary statements; assay type: in vivo; conditions: for In vivo exposure levels in animals (in words): summary; for Absorption (in words) / Bioavailability in vivo (in words) / Blood drug concentration distribution (in words) / Stability in vivo (in words): pharmacokinetic studies
[6] = Rough solubility of free base crystal form I in solvents by visual inspection; assay type: physicochemical; conditions: room temperature
[7] = Evaluation of amorphous free base: slurry in solvent, 2 days; assay type: physicochemical; conditions: for Resulting crystal form: room temperature, 2 days
Procedure: 100 mg of the amorphous free base sample obtained in the present invention was weighed and a solvent was added to form a suspension. The mixture was stirred at room temperature for 2 days, and the results are as follows: […]

[8] = FaSSIF (pH = 6.49), 0.5 h, 37 °C, LOQ ~1.0 μg/mL
[9] = FaSSIF (pH = 6.49), solution at 0.5 h
[10] = FaSSIF (pH = 6.49), solution at 2.0 h
[11] = FaSSIF (pH = 6.49), solution at 24 h
[12] = FeSSIF (pH = 5.00), solution at 0.5 h
[13] = FeSSIF (pH = 5.00), solution at 2.0 h
[14] = FeSSIF (pH = 5.00), solution at 24 h
[15] = SGF (pH = 1.19), solution at 0.5 h
[16] = SGF (pH = 1.19), solution at 2.0 h
[17] = SGF (pH = 1.19), solution at 24 h
[18] = Water (pH = 5.45), 0.5 h/2 h/24 h, 37 °C, LOQ ~1.0 μg/mL
[19] = Water (pH = 5.45), solution at 0.5 h
[20] = Water (pH = 5.45), solution at 2.0 h
[21] = Water (pH = 5.45), solution at 24 h
[22] = gavage, 10 mpk, 0.5% MC + 1% tween 80, plasma, 10 mg/kg

Compound	Solubility [1, 8]	pH [1, 9]	pH [1, 10]	pH [1, 11]	pH [1, 12]	pH [1, 13]	pH [1, 14]	pH [1, 15]	pH [1, 16]	XRPD ([2]; 40 °C/75% RH, 7 days)	XRPD ([2]; 60 °C/Closed, 7 days)	Crystal stability (in words) ([2]; 7 days)	Initial purity [2]	In vivo exposure level (in words) [3]	In vivo exposure level (in words) [4]	In vivo exposure levels in animals (in words) [5]	Absorption (in words) [5]	Bioavailability in vivo (in words) [5]	Blood drug concentration distribution (in words) [5]	Stability in vivo (in words) [5]	also measured
CCn1ncc2c(Nc3cc(C)[nH]n3)nc([C@H]3CC[C@](OC)(C(=O)N[C@@H](C)c4cnc(-n5cc(F)cn5)cn4)CC3)nc21 [Malate crystal form I]	<LOQ	6.45	6.30	5.61	4.95	4.96	4.90	1.27	1.29	Unchanged	Unchanged	good	98.772 Area %	higher than those of free base crystal form I	higher than those of free base crystal form I	excellent in vivo exposure levels; also recorded: higher animal exposure levels compared to the free base crystal form I	easy to absorb	high bioavailability	good blood drug concentration distribution	good stability in vivo	Solubility ([1]; FaSSIF (pH = 6.49), 24 h, 37 °C, LOQ ~1.0 μg/mL): <LOQ; Solubility ([1]; SGF (pH = 1.19), 0.5 h, 37 °C, 30 min): 204.753 µg/mL; Solubility ([1]; SGF (pH = 1.19), 24 h, 37 °C, 1440 min): 79.977 µg/mL; pH [1, 17]: 1.33; Maximum solubility ([1]; SGF medium, 0.5 hours, 37 °C, 30 min): 200 µg/mL; Solubility [1, 18]: <LOQ; pH [1, 19]: 4.76; pH [1, 20]: 4.19; pH [1, 21]: 3.88; XRPD (24 h) ([1]; solid form after 24 h in FeSSIF (pH = 5.00)): amorphous; HPLC purity (area %) at 168 h ([2]; 40 °C/75% RH, 7 days): 98.7%; HPLC purity (area %) at 168 h ([2]; 60 °C/Closed, 7 days): 98.8%; Solid-state stability (in words) [2]: good solid-state stability; AUC0-last [3, 22]: 1209.00 ng·h/mL; AUCINF [3, 22]: 1217.00 ng·h/mL
CCn1ncc2c(Nc3cc(C)[nH]n3)nc([C@H]3CC[C@](OC)(C(=O)N[C@@H](C)c4cnc(-n5cc(F)cn5)cn4)CC3)nc21 [Free base crystal form I]																					Solubility ([6]; 2-Me-THF): 11100 to 12500 µg/mL; Solubility ([6]; Acetone): 7100 to 8300 µg/mL; Solubility ([6]; DCM): 4600 to 5000 µg/mL; Solubility ([6]; EA): 2200 to 2300 µg/mL; Solubility ([6]; IPAc): 1500 to 1600 µg/mL; Solubility ([6]; THF): 41700 to 50000 µg/mL; Solubility ([6]; organic solvent or mixture, ACN, read-out: Solubility): ~800 µg/mL (≈ 1.36 mM); Solubility in the remaining solvents (in words) ([6]; solvents other than DMSO and THF): poor solubility; AUC0-last [3, 22]: 1172.00 ng·h/mL; AUCINF [3, 22]: 1197.00 ng·h/mL; Cmax [3, 22]: 158.00 ng/mL; T1/2 [3, 22]: 2.69 h
CCn1ncc2c(Nc3cc(C)[nH]n3)nc([C@H]3CC[C@](OC)(C(=O)N[C@@H](C)c4cnc(-n5cc(F)cn5)cn4)CC3)nc21 [Amorphous free base]																					Resulting crystal form ([7]; Acetone suspension): form III; Resulting crystal form ([7]; Methanol suspension): form I; Stability of amorphous sample (in words) ([7]; in the solvent): unstable and easily transformed into other crystal forms in the solvent
CCn1ncc2c(Nc3cc(C)[nH]n3)nc([C@H]3CC[C@](OC)(C(=O)N[C@@H](C)c4cnc(-n5cc(F)cn5)cn4)CC3)nc21 [Fumarate crystal form I]	<LOQ^1	6.48	6.54	5.91	5.01	5.03	4.93	1.17	1.22	Unchanged	Unchanged	good	98.062 Area %	higher than those of free base crystal form I	higher than those of free base crystal form I	excellent in vivo exposure levels; also recorded: higher animal exposure levels compared to the free base crystal form I	easy to absorb	high bioavailability	good blood drug concentration distribution	good stability in vivo	pH [1, 17]: 1.27; Solubility [1, 18]: <LOQ; pH [1, 19]: 5.22; pH [1, 20]: 5.84; pH [1, 21]: 3.50; XRPD (24 h) ([1]; solid form after 24 h in FaSSIF (pH = 6.49)): amorphous; Chemical purity change (in words) ([2]; 40 °C/75% RH, 7 days): slightly decreases; Purity ([2]; 40 °C/75% RH, 7 days): 97.914 Area %; Purity ([2]; 60 °C/Closed, 7 days): 98.119 Area %; Stability (in words) ([2]; closed high temperature condition (60 °C), 7 days): good; Solid-state stability (in words) [2]: good solid-state stability
CCn1ncc2c(Nc3cc(C)[nH]n3)nc([C@H]3CC[C@](OC)(C(=O)N[C@@H](C)c4cnc(-n5cc(F)cn5)cn4)CC3)nc21 [Free base crystal form III]										Unchanged	Unchanged	good	99.316 Area %	higher than those of free base crystal form I	higher than those of free base crystal form I	higher animal exposure levels compared to the free base crystal form I	easy to absorb	high bioavailability	good blood drug concentration distribution	good stability in vivo	Purity ([2]; 40 °C/75% RH, 7 days): 99.253 Area %; Purity ([2]; 60 °C/Closed, 7 days): 99.212 Area %

— patent US20260327235A1, “CRYSTAL FORM OF PYRIMIDO AZACYCLO COMPOUND, AND PREPARATION METHOD THEREFOR AND USE THEREO” (TYK MEDICINES, INC., priority 2023, published 2026)
